Holding throughout (experiment): LC-MS/MS product analysis
What all share (format): biochemical
Holding throughout (details): 50 uM IPP and 50 uM DMAPP, 10 mM MgCl2, 0.1 mM MnCl2, pH 7.2, 30 °C, 1 h

Assay [1] deals with T1, PtGPPS1.LSU + PtGPPS.SSU1 (Populus trichocarpa, UniProt A0A514TNQ6).
T1 construct: equal amounts of separately purified LSU (delta71) and SSU1 (delta41) mixed; C-terminal His tags, E. coli TOP10; heterodimer proposed, not isolated; with Geranyl diphosphate synthase small subunit 1

The target of assay [2] is T2, PtGPPS2.LSU (Populus trichocarpa, UniProt A0A514TNS4).
T2 construct: N-terminally truncated ORF (delta72, signal peptide removed), C-terminal His tag (pASK-IBA33+), E. coli TOP10, Ni-NTA purified; cloning primer encodes MPTFDFKSY

The target in assay [3] is T3, PtFPPS1 (Populus trichocarpa, UniProt A0A514TNK7).
T3 construct: full-length ORF, N-terminal His tag (pASK-IBA37+), E. coli TOP10, Ni-NTA purified; cloning primer encodes MADLKSTF
T3 sequence (A0A514TNK7 1-342): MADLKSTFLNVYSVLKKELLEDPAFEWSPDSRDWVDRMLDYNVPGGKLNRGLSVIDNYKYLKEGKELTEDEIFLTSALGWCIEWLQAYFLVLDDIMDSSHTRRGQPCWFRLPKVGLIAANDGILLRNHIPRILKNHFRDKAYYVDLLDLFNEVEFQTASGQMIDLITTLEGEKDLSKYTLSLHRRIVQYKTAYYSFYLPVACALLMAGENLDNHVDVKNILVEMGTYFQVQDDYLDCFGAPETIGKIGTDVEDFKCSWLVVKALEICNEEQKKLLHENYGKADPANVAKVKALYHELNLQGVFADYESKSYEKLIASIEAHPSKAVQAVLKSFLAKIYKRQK

For assay [4], the target named is T4, PtGPPS2.LSU + PtGPPS.SSU1 (Populus trichocarpa, UniProt A0A514TNS4).
T4 construct: separately purified LSU (delta72) and SSU1 (delta41) mixed; C-terminal His tags, E. coli TOP10; heterodimer proposed, not isolated; with Geranyl diphosphate synthase small subunit 1

The target of assay [5] is T5, PtGPPS1.LSU (Populus trichocarpa, UniProt A0A514TNQ6).
T5 construct: N-terminally truncated ORF (delta71, signal peptide removed), C-terminal His tag (pASK-IBA33+), E. coli TOP10, Ni-NTA purified; cloning primer encodes MPTFDFKSY
T5 sequence (A0A514TNQ6 70-365): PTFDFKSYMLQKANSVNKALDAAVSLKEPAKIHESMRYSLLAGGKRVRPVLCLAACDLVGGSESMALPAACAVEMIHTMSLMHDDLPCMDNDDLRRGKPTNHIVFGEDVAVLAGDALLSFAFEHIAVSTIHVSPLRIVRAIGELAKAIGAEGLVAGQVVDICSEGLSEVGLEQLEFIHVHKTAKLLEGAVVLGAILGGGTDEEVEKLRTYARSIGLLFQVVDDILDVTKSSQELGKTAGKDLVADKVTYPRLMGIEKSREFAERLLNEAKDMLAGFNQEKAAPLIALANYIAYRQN

T4 sequence (A0A514TNS4 71-366): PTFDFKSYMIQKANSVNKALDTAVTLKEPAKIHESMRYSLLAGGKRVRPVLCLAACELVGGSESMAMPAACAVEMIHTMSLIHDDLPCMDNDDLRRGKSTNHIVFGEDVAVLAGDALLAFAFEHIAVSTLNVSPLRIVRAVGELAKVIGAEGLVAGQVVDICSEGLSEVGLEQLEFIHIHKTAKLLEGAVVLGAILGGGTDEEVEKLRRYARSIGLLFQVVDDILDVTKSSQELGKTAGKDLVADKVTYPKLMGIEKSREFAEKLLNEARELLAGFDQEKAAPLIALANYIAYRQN
T4 sequence (A0A514TNK9 42-312 partner): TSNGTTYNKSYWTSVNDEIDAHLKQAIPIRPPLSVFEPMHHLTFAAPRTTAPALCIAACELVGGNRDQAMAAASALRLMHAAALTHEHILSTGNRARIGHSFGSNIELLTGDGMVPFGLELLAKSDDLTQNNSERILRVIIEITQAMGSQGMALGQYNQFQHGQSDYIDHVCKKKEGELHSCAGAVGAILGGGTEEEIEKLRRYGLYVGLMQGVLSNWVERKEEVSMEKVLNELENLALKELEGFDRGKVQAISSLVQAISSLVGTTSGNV
T2 sequence (A0A514TNS4 71-366): as the sequence (A0A514TNS4 71-366) above
T1 sequence (A0A514TNQ6 70-365): as the sequence (A0A514TNQ6 70-365) above
T1 sequence (A0A514TNK9 42-312 partner): as the sequence (A0A514TNK9 42-312 partner) above

In the case of `CC(C)=CCOP(=O)(O)OP(=O)(O)O` [DMAPP], the LC-MS/MS product analysis entry in assay [1] was “incubated with IPP and DMAPP either in the presence (black bars) or absence”; in assay [2], “produced GPP and GGPP when tested with IPP and DMAPP as substrates”; in assay [3], “PtFPPS1 catalyzes the condensation of IPP and DMAPP to FPP and traces of GGPP”; in assay [4], “incubated with IPP and DMAPP either in the presence (black bars) or absence”; in assay [5], “produced GPP and GGPP when tested with IPP and DMAPP as substrates”.

Consider `C=C(C)CCOP(=O)(O)OP(=O)(O)O` [IPP], for which the LC-MS/MS product analysis entry in assay [1] is “incubated with IPP and DMAPP either in the presence (black bars) or absence”; in assay [2], “produced GPP and GGPP when tested with IPP and DMAPP as substrates”; in assay [3], “PtFPPS1 catalyzes the condensation of IPP and DMAPP to FPP and traces of GGPP”; in assay [4], “incubated with IPP and DMAPP either in the presence (black bars) or absence”; in assay [5], “produced GPP and GGPP when tested with IPP and DMAPP as substrates”.

The values above are taken from article PMC6651613, “Identification and Characterization of trans-Isopentenyl Diphosphate Synthases Involved in Herbivory-Induced Volatile Terpene Formation in Populus trichocarpa” (Molecules, 2019).
